Laboratory results reported in patent US6380463B1, “Inducible herbicide resistance” (priority 1995, dated 2002).

Tests used:
alcA/alcR system [1] = test: non-solvent chemical treatments, induction of the alcA/alcR switch; type: in vivo; settings: non-solvent chemical treatment
alcA/alcR system [2] = test: hydroponic seedling system (root drenching), induced reporter gene expression; type: in vivo; settings: FIG. 2
Text: (§1) 3. We have tested the specificity of alcA/alcR system with a range of solvents used in agronomic practice.

alcA/alcR system [3] = settings: applied as a foliar spray, FIG. 3
Text: as §1
FIG. 3 illustrates the levels of induced reporter gene activity when the chemicals listed in Table 1 were applied as a foliar spray;

[4] = system: Brassica napus var Westar; test: kill curve on glyphosate, oil seed rape growing tip plus two leaves in MS medium; type: in vivo
Method: (§2) Kill Curves for Tobacco var Samsun and Brassica napus var Westar on glyphosate
(§3) Both species were tested on a range of glyphosate concentrations by inserting, in the case of tobacco a 5-6 mm stem segment carrying a leaf node and in the case of oil seed rape the growing tip plus two leaves into MS medium containing glyphosate at […] glyphosate isopropylamine salt.

[5] = system: 5-enol-pyruvylshikimate-3-phosphate (EPSP) synthase; test: EPSPS assay in plant extracts (14C-labelled phosphoenol pyruvate, HPLC); type: biochemical
Method: Assays for 5-enol-pyruvylshikimate-3-phosphate (EPSP) synthase activity in plant extracts were carried out (1) by following the disappearance of the phosphoenol pyruvate substrate (as described by Rubin, J. L., Gaines, C. G and Jensen, R. A., in Plant Physiol (1984 75, 839-845) or (2) by conducting the assay in the reverse direction and coupling to pyruvate kinase and lactate dehydrogenase (as described by Mousdale D. M. and Coggins J. R. in Planta (1984) 160, 78-83) or (3) by using 14(-labelled phosphoenol pyruvate as substrate and detecting the formation of radioactive EPSP by HPLC on an anion exchange column and detecting using a flow-through radioactivity detector as described by Della-Cioppa et al in Proc. Nat. Acad. Sci. (USA) (1986), 83, 6873-6877.

Tobacco var Samsun = test: kill curve on glyphosate, tobacco stem segment in MS medium; type: in vivo
Method: as §2, §3

Molecule: CC1=CC(=O)CC(C)(C)C1(O)/C=C/C(C)=C\C(=O)O (stereo not shown) [absisic acid]
- induction of the alcA/alcR system (alcA/alcR system [1]): failed to induce

Molecule: CCC(C)O (stereo not shown) [butan-2-ol]
- levels of induced reporter gene expression (alcA/alcR system [2]): high levels of induced reporter gene expression

Molecule: O=C1CCCCC1 [cyclohexanone]
- levels of induced reporter gene expression (alcA/alcR system [2]): high levels of induced reporter gene expression

Molecule: CCO [ethanol]
- levels of induced reporter gene activity (alcA/alcR system [3]): high levels of induced reporter gene activity
- levels of induced reporter gene expression (alcA/alcR system [2]): high levels of induced reporter gene expression

Molecule: C=C [ethylene]
- induction of the alcA/alcR system (alcA/alcR system [1]): failed to induce

Molecule: C=C1C[C@]23C[C@@]1(O)CC[C@H]2[C@@]12C=C[C@H](O)[C@@](C)(C(=O)O1)[C@H]2[C@@H]3C(=O)O [gibberelic acid]
- induction of the alcA/alcR system (alcA/alcR system [1]): failed to induce

Molecule: O=C(O)CNCP(=O)(O)O [glyphosate, N-phosphonomethyl-glycine]
- growth scored after two weeks ([4]; 0.005 mM in MS medium): No stem growth, 1 new leaf, roots to 1 cm
- growth scored after two weeks ([4]; 0.011 mM in MS medium): No stem growth, no new leaves, roots ˜ 0.5 cm
- growth scored after two weeks ([4]; 0.0275 mM in MS medium): No stem growth, no new leaves, roots ˜ 2 mm
- growth scored after two weeks ([4]; 0.055 mM in MS medium): No growth in any organ, ends of stem blackened
- inhibition of EPSP synthase activity [5]: relatively resistant to inhibition
- growth scored after two weeks (Tobacco var Samsun; 0.005 mM in MS medium): No growth
- growth scored after two weeks (Tobacco var Samsun; 0.01 mM in MS medium): No growth
- growth scored after two weeks (Tobacco var Samsun; 0.011 mM in MS medium): No growth
- growth scored after two weeks (Tobacco var Samsun; 0.0275 mM in MS medium): No growth
- growth scored after two weeks (Tobacco var Samsun; 0.055 mM in MS medium): No growth

Molecule: O=C(O)c1ccccc1O [salicylic acid]
- induction of the alcA/alcR system (alcA/alcR system [1]): failed to induce

Molecule: auxin
- induction of the alcA/alcR system (alcA/alcR system [1]): failed to induce
